Laboratory results: patent US8741897B2, “Glucocorticoid mimetics, methods of making them, pharmaceutical compositions and uses thereof” (Boehringer Ingelheim Pharmaceuticals Inc., priority 2003, dated 2014)

Columns and labels:
[1] = target: T1, human glucocorticoid receptor (GR) complex (Homo sapiens, UniProt P04150); assay: Glucocorticoid receptor competitive binding assay (fluorescence polarization, TAMRA-labeled dexamethasone probe); settings: compounds of Formula (IA)
T1 construct: made in house; host or cells: insect expression system (baculovirus lysate)
T1 sequence (P04150 1-777): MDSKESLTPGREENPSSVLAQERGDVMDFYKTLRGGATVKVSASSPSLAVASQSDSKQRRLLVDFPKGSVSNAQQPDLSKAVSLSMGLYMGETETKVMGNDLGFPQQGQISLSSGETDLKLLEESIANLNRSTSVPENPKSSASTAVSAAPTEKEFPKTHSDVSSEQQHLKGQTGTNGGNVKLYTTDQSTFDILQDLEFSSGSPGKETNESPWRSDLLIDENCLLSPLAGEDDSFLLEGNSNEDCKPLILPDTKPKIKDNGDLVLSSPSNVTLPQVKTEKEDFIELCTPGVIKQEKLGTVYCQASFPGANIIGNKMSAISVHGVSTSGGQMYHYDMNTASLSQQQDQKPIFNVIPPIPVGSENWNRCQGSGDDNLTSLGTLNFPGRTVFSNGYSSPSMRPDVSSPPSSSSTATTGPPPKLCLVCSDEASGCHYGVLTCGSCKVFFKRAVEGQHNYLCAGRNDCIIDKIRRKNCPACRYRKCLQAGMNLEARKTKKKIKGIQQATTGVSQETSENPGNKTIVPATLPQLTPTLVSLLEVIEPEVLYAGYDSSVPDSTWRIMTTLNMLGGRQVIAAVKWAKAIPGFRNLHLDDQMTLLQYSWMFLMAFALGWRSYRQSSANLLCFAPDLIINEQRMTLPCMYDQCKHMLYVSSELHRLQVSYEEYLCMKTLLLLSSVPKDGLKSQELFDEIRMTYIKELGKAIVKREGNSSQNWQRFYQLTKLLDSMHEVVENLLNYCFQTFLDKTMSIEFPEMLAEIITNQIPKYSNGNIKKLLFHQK
In short: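 Fluorescence-polarization competition against 15 nM TAMRA-dexamethasone (stock added to the mix) for human GR complex from baculovirus lysate diluted 1:170. Buffer: 10 mM TES, 50 mM KCl, 20 mM Na2MoO4, 1.5 mM EDTA, 0.04% CHAPS, 10% glycerol, 1 mM DTT, pH 7.4. IC50 from 4-parameter logistic fit.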

[2] = tested on: glucocorticoid receptor function; assay: one or more of the above assays (GR binding and glucocorticoid receptor cell assays: aromatase, IL-6, TAT, MMTV-Luc, IL-8, ICAM-Luc); format: cell-based; settings: assay not specified per compound

Compound | activity in the GR binding assay [1] | activity as agonists of the glucocorticoid receptor function in one or more of the above assays [2]
Cc1ccc(F)cc1C(C)(C)CC(O)(Cc1cc2ncncc2[nH]1)C(F)(F)F (stereo not drawn) [1,1,1-Trifluoro-4-(5-fluoro-2-methylphenyl)-4-methyl-2-(5H-pyrrolo[3,2-d]pyrimidin-6-ylmethyl)pentan-2-ol] | potent activity | potent agonists
Cc1cc(C(C)(C)CC(O)(Cc2cc3ccccc3[nH]2)C(F)(F)F)ccc1F (stereo not drawn) [1,1,1-Trifluoro-4-(4-fluoro-3-methylphenyl)-2-(1H-indol-2-ylmethyl)-4-methylpentan-2-ol] | potent activity | potent agonists
COc1ccc(F)cc1C(C)(C)CC(O)(Cc1[nH]c2ccncc2c1C)C(F)(F)F (stereo not drawn) [1,1,1-Trifluoro-4-(5-fluoro-2-methoxyphenyl)-4-methyl-2-(3-methyl-1H pyrrolo[3,2-c]pyridin-2-ylmethyl)pentan-2-ol] | potent activity | potent agonists
COc1ccc2[nH]c(CC(O)(CC(C)(C)c3cc(F)ccc3C)C(F)(F)F)cc2n1 (stereo not drawn) [1,1,1-Trifluoro-4-(5-fluoro-2-methylphenyl)-2-(5-methoxy-1H-pyrrolo[3,2-b]pyridin-2-ylmethyl)-4-methylpentan-2-ol] | potent activity | potent agonists
Cc1cccc(C(C)(C)CC(O)(Cc2ccnc3ccccc23)C(F)(F)F)c1 (stereo not drawn) [1,1,1-Trifluoro-4-methyl-2-quinolin-4-ylmethyl-4-m-tolylpentan-2-ol] | potent activity | potent agonists
CC(C)(CC(O)(Cc1ccnc2ccccc12)C(F)(F)F)c1ccccc1C(F)(F)F (stereo not drawn) [1,1,1-Trifluoro-4-methyl-2-quinolin-4-ylmethyl-4-(2-trifluoromethylphenyl)pentan-2-ol] | potent activity | potent agonists
Cc1cc2c(c(C(C)(C)CC(O)(Cc3cc4ccncc4[nH]3)C(F)(F)F)c1)OCC2 (stereo not drawn) [1,1,1-Trifluoro-4-methyl-4-(5-methyl-2,3-dihydrobenzofuran-7-yl)-2-(1H-pyrrolo[2,3-c]pyridin-2-ylmethyl)pentan-2-ol] | potent activity | potent agonists
Cc1cc(CC(O)(CC(C)(C)c2ccc(F)cc2)C(F)(F)F)c2ccccc2n1 (stereo not drawn) [1,1,1-Trifluoro-4-(4-fluorophenyl)-4-methyl-2-(2-methylquinolin-4-ylmethyl)pentan-2-ol] | potent activity | potent agonists
COc1ccc(F)cc1C(C)(C)CC(O)(Cc1cc2cnc(C)cc2[nH]1)C(F)(F)F (stereo not drawn) [1,1,1-Trifluoro-4-(5-fluoro-2-methoxyphenyl)-4-methyl-2-(6-methyl-1H-pyrrolo[3,2-c]pyridin-2-ylmethyl)pentan-2-ol] | potent activity | potent agonists
Cc1c(CC(O)(CC(C)(C)c2cccc(F)c2)C(F)(F)F)[nH]c2ccccc12 (stereo not drawn) [1,1,1-Trifluoro-4-(3-fluorophenyl)-4-methyl-2-(3-methyl-1H-indol-2-ylmethyl)pentan-2-ol] | potent activity | potent agonists
CC(C)(CC(O)(Cc1cc2ccccc2[nH]1)C(F)(F)F)c1cccc(F)c1 (stereo not drawn) [1,1,1-Trifluoro-4-(3-fluorophenyl)-2-(1H-indol-2-ylmethyl)-4-methylpentan-2-ol] | potent activity | potent agonists
COc1ccc(F)cc1C(C)(C)CC(O)(Cc1cc2cnccc2[nH]1)C(F)F (stereo not drawn) [1,1-Difluoro-4-(5-fluoro-2-methoxyphenyl)-4-methyl-2-(1H-pyrrolo[3,2-c]pyridin-2-ylmethyl)pentan-2-ol] | potent activity | potent agonists

Second part, led by results:

activity in the GR binding assay [1] | Compound | activity as agonists of the glucocorticoid receptor function in one or more of the above assays [2]
potent activity | Cc1cccc(C(C)(C)CC(O)(Cc2cc(C)nc(C)c2)C(F)(F)F)c1 (stereo not drawn) [2-(2,6-Dimethylpyridin-4-ylmethyl)-1,1,1-trifluoro-4-methyl-4-m-tolylpentan-2-ol] | potent agonists
potent activity | Cc1cc(CC(O)(CC(C)(C)c2ccc(F)cc2)C(F)(F)F)cc(C)n1 (stereo not drawn) [2-(2,6-Dimethylpyridin-4-ylmethyl)-1,1,1-trifluoro-4-(4-fluorophenyl)-4-methylpentan-2-ol] | potent agonists
potent activity | COc1ccc(F)cc1C(C)(C)CC(O)(Cc1cc2ccc(C#N)cc2[nH]1)C(F)(F)F (stereo not drawn) [2-[4-(5-Fluoro-2-methoxyphenyl)-2-hydroxy-4-methyl-2-trifluoromethylpentyl]-1H-indole-6-carbonitrile] | potent agonists
potent activity | Cc1cc(CC(O)(CC(C)(C)c2cccc3c2OCC3)C(F)(F)F)cc(C)n1 (stereo not drawn) [4-(2,3-Dihydrobenzofuran-7-yl)-2-(2,6-dimethylpyridin-4-ylmethyl)-1,1,1-trifluoro-4-methylpentan-2-ol] | potent agonists
potent activity | COc1ccc(C(C)(C)C)cc1C(C)(C)CC(O)(Cc1[nH]c2ccccc2c1C#N)C(F)(F)F (stereo not drawn) [2-[4-(5-tert-Butyl-2-methoxyphenyl)-2-hydroxy-4-methyl-2-trifluoromethylpentyl]-1H-indole-3-carbonitrile] | potent agonists
potent activity | Cc1ccc(F)cc1C(C)(C)CC(O)(Cc1cc2cc(Cl)ncc2[nH]1)C(F)(F)F (stereo not drawn) [2-(5-Chloro-1H-pyrrolo[2,3-c]pyridin-2-ylmethyl)-1,1,1-trifluoro-4-(5-fluoro-2-methylphenyl)-4-methylpentan-2-ol] | potent agonists
potent activity | CC(C)(CC(O)(Cc1ccnc2ccccc12)C(F)(F)F)c1cccc(O)c1 (stereo not drawn) [3-(4,4,4-Trifluoro-3-hydroxy-1,1-dimethyl-3-quinolin-4-ylmethylbutyl)phenol] | potent agonists
potent activity | CC(C)(CC(O)(Cc1cc2cc(C(F)(F)F)ccc2[nH]1)C(F)(F)F)c1cc(F)ccc1O (stereo not drawn) [4-Fluoro-2-[4,4,4-trifluoro-3-hydroxy-1,1-dimethyl-3-(5-trifluoromethyl-1H-indol-2-ylmethyl)butyl]phenol] | potent agonists
potent activity | COc1ccc(OC)c(C(C)(C)CC(O)(Cc2cc3ccncc3[nH]2)C(F)(F)F)c1 (stereo not drawn) [4-(2,5-Dimethoxyphenyl)-1,1,1-trifluoro-4-methyl-2-(1H-pyrrolo[2,3-c]pyridin-2-ylmethyl)pentan-2-ol] | potent agonists
potent activity | CC(C)(CC(O)(Cc1ccnc2ccccc12)C(F)(F)F)c1cc(F)ccc1O (stereo not drawn) [4-Fluoro-2-(4,4,4-trifluoro-3-hydroxy-1,1-dimethyl-3-quinolin-4-ylmethylbutyl)phenol] | potent agonists
potent activity | COc1ccc(F)cc1C(C)(C)CC(O)(Cc1cc2c(C#N)nccc2[nH]1)C(F)(F)F (stereo not drawn) [2-[4-(5-Fluoro-2-methoxyphenyl)-2-hydroxy-4-methyl-2-trifluoromethylpentyl]-1H-pyrrolo[3,2-c]pyridine-4-carbonitrile] | potent agonists
potent activity | Cc1cc2[nH]c(CC(O)(CC(C)(C)c3cc(Cl)cc4c3OCC4)C(F)(F)F)cc2cn1 (stereo not drawn) [4-(5-Chloro-2,3-dihydrobenzofuran-7-yl)-1,1,1-trifluoro-4-methyl-2-(6-methyl-1H-pyrrolo[3,2-c]pyridin-2-ylmethyl)pentan-2-ol] | potent agonists
